Results from paper PMC9866588, “Novel 7-Chloro-4-aminoquinoline-benzimidazole Hybrids as Inhibitors of Cancer Cells Growth: Synthesis, Antiproliferative Activity, in Silico ADME Predictions, and Docking” (Molecules, 2023).
Where a name gives a salt, the structure may show the parent alone. Read-outs that look alike come from different tables or passages of the source.

Columns and labels:
[1] = tested on: MDCK1 (Madine–Darby canine kidney) cells; assay: MTT antiproliferative assay, MDCK1; assay type: cell-based; conditions: mean ± SD of three independent experiments
Protocol: (§1) The growth inhibition activity was assessed according to the slightly modified procedure performed at the National Cancer Institute, Developmental Therapeutics Program.
(§2) The examined compounds were dissolved in DMSO (1 × 10^−2 M). The experiments were carried out on seven human tumor cell lines and a normal cell line. The following cell lines were used: HeLa (human cervical adenocarcinoma; purchased from ATCC), CaCo-2 (human colorectal adenocarcinoma), MCF-7 (human breast adenocarcinoma), CCRF-CEM (human acute lymphoblastic leukemia), Hut78 (T-cell lymphoma), THP-1 (acute monocytic leukemia), Burkitt lymphoma (Raji), and MDCK1 (Madine–Darby canine kidney). The MDCK1 cells were used between 24 and 26 passages.
(§3) The adherent cells were cultured in Dulbecco’s modified Eagle medium—DMEM (Gibco, Termo Fisher Scientific Inc., Leicestershire, England, UK), supplemented with 10% heat-inactivated fetal bovine serum (FBS, Gibco, Termo Fisher Scientific Inc., Leicestershire, England, UK), 2 mM glutamine, and 100U/0.1mg penicillin/streptomycin. The cells in suspension were cultured in RPMI 1640 (Gibco, Termo Fisher Scientific Inc., Leicestershire, England, UK) medium, supplemented with 10% FBS (Gibco, Termo Fisher Scientific Inc., Leicestershire, England, UK), 2 mM glutamine, 1 mM sodium pyruvate, and 10 mM HEPES. The cells were grown in a humidified atmosphere under the conditions of 37 °C/5% of CO2 gas in the CO2 incubator (IGO 150 CELLlife^TM, JOUAN, Thermo Fisher Scientific, Waltham, MA, USA).
(§4) The adherent cells (HeLa, CaCo-2, MCF-7, and MDCK-1) were plated in 96-well flat bottom plates (Greiner, Frickenhausen, Austria) at a concentration of 2 × 10^4 cells/mL. The suspension cells (Raji, THP-1, CCRF-CEM and Hut78) were plated in 96-well microtiter plates (Sarstead, Newton, NC, USA) at a concentration of 1 × 10^5 cells/mL. Twenty-four hours later, the cells were treated with test agents in […] and incubated for a further 72 h. The working dilutions were freshly prepared on the day of testing. The solvent was also tested for eventual inhibitory activity by adjusting its concentration to be the same as in the working concentrations. After 72 h of incubation, the cell growth rate was evaluated by performing the MTT assay, which detects dehydrogenase activity in viable cells. For this purpose, upon completion of the incubation period, the growth medium was discarded and 50 μL of MTT was added to each well at a concentration of 5 mg/mL. After four hours of incubation at 37 °C, the water insoluble MTT-formazan crystals were dissolved in 150 μL of dimethyl-sulfoxide (DMSO) for the adherent cells and in 10% SDS with 0.01 mol/L HCl for the cells grown in suspension. The absorbance (OD, optical density) was measured on a microplate reader (iMark, BIO RAD, Hercules, CA, USA) at 595 nm.
(§5) The percentage of live cells was calculated as follows: % = OD (sample) − OD (background)/OD (control) − OD (background) × 100.
(§6) The optical density (OD) of the background for the adherent cells is the OD of the MTT solution and DMSO; the OD (background) for the suspension cells is the OD of the culture medium with MTT and 10% SDS with 0.01 mol/L HCl; the OD (control) is the OD of the cells grown without the tested compounds.
(§7) The calculation of the GI50 value curves and QC analysis was performed using the Excel tools and GraphPadPrism software (La Jolla, CA, USA), v. 5.03. Briefly, individual concentration effect curves are generated by plotting the logarithm of the concentration of the tested compounds (X) vs. the corresponding percent inhibition values (Y) using the least squares fit. The best-fit GI50 values are calculated using log (inhibitor) versus normalized response—variable slope equation, where Y Ľ 100/(1 ţ 10 ((LogIC50 _ X) × HillSlope)). The QC criteria parameters (Z0, S:B, R2, HillSlope) were checked for every GI50 curve.

[2] = tested on: HeLa (human cervical adenocarcinoma) cells; assay: MTT antiproliferative assay, HeLa; assay type: cell-based; conditions: 72 h, mean ± SD of three independent experiments
Protocol: as §1, §2, §3, §4, §5, §6, §7

[3] = tested on: CaCo-2 (human colorectal adenocarcinoma) cells; assay: MTT antiproliferative assay, CaCo-2; assay type: cell-based; conditions: 72 h, mean ± SD of three independent experiments
Protocol: as §1, §2, §3, §4, §5, §6, §7

[4] = tested on: MCF-7 (human breast adenocarcinoma) cells; assay: MTT antiproliferative assay, MCF-7; assay type: cell-based; conditions: MCF7, 72 h, mean ± SD of three independent experiments
Protocol: as §1, §2, §3, §4, §5, §6, §7

[5] = tested on: CCRF-CEM (human acute lymphoblastic leukemia) cells; assay: MTT antiproliferative assay, CCRF-CEM; assay type: cell-based; conditions: Homo sapiens, CCRF-CEM; 72 h, MTT, mean ± SD of three independent experiments
Protocol: as §1, §2, §3, §4, §5, §6, §7

[6] = tested on: THP-1 (acute monocytic leukemia) cells; assay: MTT antiproliferative assay, THP-1; assay type: cell-based, human; conditions: Homo sapiens, THP-1; 72 h, MTT, mean ± SD of three independent experiments; read-out: GI50 THP1
Protocol: as §1, §2, §3, §4, §5, §6, §7

[7] = tested on: Raji (Burkitt lymphoma) cells; assay: MTT antiproliferative assay, Raji; assay type: cell-based, human; conditions: Homo sapiens, Raji; 72 h, MTT, mean ± SD of three independent experiments
Protocol: as §1, §2, §3, §4, §5, §6, §7

[8] = tested on: Hut78 (T-cell lymphoma) cells; assay: MTT antiproliferative assay, HuT78; assay type: cell-based, human; conditions: Homo sapiens, HuT78; 72 h, MTT, mean ± SD of three independent experiments
Protocol: as §1, §2, §3, §4, §5, §6, §7

[9] = tested on: normal (MDCK1) and tumor cell lines; assay: MTT antiproliferative assay, ranges stated over several cell lines; assay type: cell-based; conditions: for GI50: MDCK1
Protocol: as §1, §2, §3, §4, §5, §6, §7

[10] = Canis lupus familiaris, MDCK1, 72 h

SMILES | GI50 [1, 10] [µM] | GI50 [2] [µM] | GI50 [3] [µM] | GI50 [4] [µM] | GI50 [5] [µM] | GI50 [6] [µM] | GI50 [7] [µM] | GI50 [8] [µM] | GI50 ([1]; 72 h) [µM] | GI50 ([9]; range over tumor cell lines, read-out: GI50 range, tumor cell lines) [µM] | GI50 / inhibitory potential, normal and tumor cells ([9]; over all tested cell lines) | GI50 ([9]; leukemia and lymphoma cell lines, read-out: GI50 range, leukemia and lymphoma cells) [µM]
N=C(N)c1ccc2[nH]c(-c3cccc(Nc4ccnc5cc(Cl)ccc45)c3)nc2c1 [Compound 5a, 2-(3-(7-chloroquinolin-4-ylamino)phenyl)-1H-benzo[d]imidazole-5-carboximidamide trihydrochloride] | > 100 | > 100 | > 100 | > 100 | > 100 | > 100 | > 100 | > 100 | – | – | – | –
N=C(N)c1ccc2[nH]c(-c3ccc(N4CCN(c5ccnc6cc(Cl)ccc56)CC4)cc3)nc2c1 [Compound 8a, 2-(4-(4-(7-chloroquinolin-4-yl)piperazin-1-yl)phenyl)-1H-benzo[d]imidazole-5-carboxamidine dihydrochloride] | 42.7 ± 10.8 | 36.3 ± 9.6 | > 100 | 20.7 ± 8.6 | 32.1 ± 3.8 | > 100 | 37.7 ± 8.6 | 20.2 ± 6.1 | – | – | – | –
CC(C)NC(=N)c1ccc2[nH]c(-c3ccc(C(=O)NCCNc4ccnc5cc(Cl)ccc45)cc3)nc2c1 [Compound 12b, 4-(5-(N-isopropylcarbamimidoyl)-1H-benzo[d]imidazol-2-yl)-N-(2-(7-chloroquinolin-4-ylamino)ethyl)benzamide trihydrochloride] | 42.9 ± 5.1 | 100 | 38.7 ± 12.4 | 100 | 43.3 ± 17.5 | 100 | 12.8 ± 3.7 | 5.6 ± 2.7 | – | – | – | –
O=c1[nH]cc(F)c(=O)[nH]1 [Compound 5-FU, 5-Fluorouracil, reference compound] | 74 ± 3.1 | 8.2 ± 1.9 | 5.9 ± 0.7 | 30.2 ± 4.7 | > 50 | 76.3 ± 0.5 | > 100 | > 100 | – | – | – | –
Clc1ccc2[nH]c(-c3cccc(Nc4ccnc5cc(Cl)ccc45)c3)nc2c1 [Compound 5e, 7-chloro-N-(3-(5-chloro-1H-benzo[d]imidazol-2-yl)phenyl)quinolin-4-amine] | 11.4 to 20.4 | 11.8 ± 1.2 | 1.1 ± 0.1 | 11.1 ± 1.6 | 15.6 ± 3.4 | 2.1 ± 0.9 | 5.4 ± 2 | 6.7 ± 0.5 | 11.4 ± 6.2 | 0.4 to 15.6 | strong antiproliferative activity | –
CC(C)NC(=N)c1ccc2[nH]c(-c3cccc(Nc4ccnc5cc(Cl)ccc45)c3)nc2c1 [Compound 5b, 2-(3-(7-chloroquinolin-4-ylamino)phenyl)-N-isopropyl-1H-benzo[d]imidazole-5-carboximidamide trihydrochloride] | > 100 | > 100 | > 100 | > 100 | > 100 | > 100 | > 100 | 41.8 ± 8.2 | – | – | – | –
Clc1ccc2c(N3CCN(c4ccc(-c5nc6cc(C7=NCCN7)ccc6[nH]5)cc4)CC3)ccnc2c1 [Compound 8c, 7-chloro-4-(4-(4-(5-(4,5-dihydro-1H-imidazol-2-yl)-1H-benzo[d]imidazol-2-yl)phenyl)piperazin-1-yl)quinoline dihydrochloride] | 30.1 ± 5 | 41.8 ± 8.4 | 100 | 24.8 ± 2.2 | 25.4 ± 11.5 | 71.3 ± 11.4 | 43.9 ± 16.2 | 27.6 ± 4.7 | – | – | – | –
Clc1ccc2[nH]c(-c3ccc(N4CCN(c5ccnc6cc(Cl)ccc56)CC4)cc3)nc2c1 [Compound 8e, 7-chloro-4-(4-(4-(5-chloro-1H-benzo[d]imidazol-2-yl)phenyl)piperazin-1-yl)quinoline] | 2.7 ± 0.3 | 100 | > 100 | 84 ± 7.7 | 41 ± 0.5 | 22.3 ± 7.4 | 13.4 ± 2.6 | 15.6 ± 9.8 | – | – | – | 13.4 to 41
N=C(N)c1ccc2[nH]c(-c3ccc(C(=O)NCCNc4ccnc5cc(Cl)ccc45)cc3)nc2c1 [Compound 12a, 4-(5-carbamimidoyl-1H-benzo[d]imidazol-2-yl)-N-(2-(7-chloroquinolin-4-ylamino)ethyl)benzamide trihydrochloride] | 21.6 ± 3.2 | 11.1 ± 3.8 | 24.7 ± 6.2 | 39.1 ± 5.6 | 20 ± 6.8 | > 100 | 8.9 ± 3.3 | 4.1 ± 2 | – | – | – | –
O=C(NCCNc1ccnc2cc(Cl)ccc12)c1ccc(-c2nc3cc(C4=NCCN4)ccc3[nH]2)cc1 [Compound 12c, N-(2-(7-chloroquinolin-4-ylamino)ethyl)-4-(5-(4,5-dihydro-1H-imidazol-2-yl)-1H-benzo[d]imidazol-2-yl)benzamide trihydrochloride] | 39.6 ± 2.2 | 33.2 ± 5.8 | 52 ± 9.1 | 100 | 56.3 ± 9 | > 100 | 20.8 ± 1.8 | 4.4 ± 1 | – | – | – | –
CC(C)NC(=N)c1ccc2[nH]c(-c3ccc(N4CCN(c5ccnc6cc(Cl)ccc56)CC4)cc3)nc2c1 [Compound 8b, 2-(4-(4-(7-chloroquinolin-4-yl)piperazin-1-yl)phenyl)-N-isopropyl-1H-benzo[d]imidazole-5-carboxamidine dihydrochloride] | 58.8 ± 9.8 | 21 ± 1.9 | 100 | 30.9 ± 2.7 | 39.6 ± 9.2 | > 100 | 42.9 ± 8.8 | 26.2 ± 1.6 | – | – | – | –
Clc1ccc2c(Nc3cccc(-c4nc5cc(C6=NCCN6)ccc5[nH]4)c3)ccnc2c1 [Compound 5c, 7-chloro-N-(3-(5-(4,5-dihydro-1H-imidazol-2-yl)-1H-benzo[d]imidazol-2-yl)phenyl)quinolin-4-amine trihydrochloride] | > 100 | > 100 | > 100 | > 100 | > 100 | > 100 | > 100 | 66.2 ± 14.6 | – | – | – | –
